In patent publication US10786525B2, “Method for treating haemorrhage, shock and brain injury” (priority 2013, dated 2020):

Assays:
[1] = test system: isolated guinea-pig mesenteric artery; experiment: Pressure myograph relaxation of AVP-constricted mesenteric artery (Example 4); settings: for relaxation of intact artery: 0.001 to 1 mM, luminal or abluminal; for abluminal versus luminal relaxation: adenosine: at 10 μM and 100 μM
Protocol: Male guinea pigs (250-300 g) were anesthetised and placed in a cradle and the abdomen opened. Second order mesenteric artery branches were isolated and mounted in a pressure myograph (see FIG. 4) under constant pressure of 60 mmHg and perfusion (luminal flow) of 100 uL/min with Krebs-Henseleit buffer (37° C.). Artery diameter was continuously measured using videomicroscopy (see FIG. 4). For the relaxation/vasodilation experiments arteries were equilibrated and then constricted with 10^−8 M arginine vasopressin (AVP). Adenosine, lidocaine or adenosine-lidocaine together were administered 2) luminally and 2) abluminally and concentration curves were obtained. Stock solutions of adenosine and lidocaine alone or adenosine-lidocaine combined were made in deionized water to 20 mM. A range of volumes were pipetted to provide contact concentrations with the vessel lumen or outer wall that ranged from 0.001 to 1 mM. At the end of experiments, arteries were dilated using calcium-free solution to obtain 100% relaxation. A number of arteries were denuded by introducing 5 ml air into the lumen with flow rate 1000 μl/min. The air outflow was then clamped until the intraluminal pressure reached 70 mmHg, flow rate was reduced to 2 μl/min and the vessel remained pressurized for 10 minutes

[2] = oral and/or intravenous 10, 25, 50, and 100 mg/kg; cited from earlier work

SMILES	artery diameter in the presence of endothelium [1]	relaxation of intact artery [1]	abluminal versus luminal relaxation [1]	relaxation when endothelium was absent ([1]; denuded)	safety in humans [2]	relaxation with or without intact endothelium [1]
CCN(CC)CC(=O)Nc1c(C)cccc1C [lidocaine]	did not significantly change mesenteric artery diameter	failed to produce relaxation	no significant difference	relaxed the artery		
NC(=O)c1ncn([C@@H]2O[C@H](CO)[C@@H](O)[C@H]2O)c1N [Acadesine, 5-amino-4-imidazole carboxamide ribonucleoside]					safe in humans	
Nc1ncnc2c1ncn2[C@@H]1O[C@H](CO)[C@@H](O)[C@H]1O [adenosine]		increased relaxation	significantly more relaxation			relaxed the mesenteric artery in a dose dependent manner
